Where a SMILES comes first, the peptide text is derived from it. The star is where a group is joined. Cbz = O=C(OCc1ccccc1)*
Experiments:
Type in all cases: cell-based, human
[1] = system: proteasome activity in 2008 cells; assay: Proteasome activity assay (commercially available kit) on cell lysates; conditions: 48 h
Experimental: FIG. 11. Inhibition of the proteasomal activity by MG132 results in increased ubiquitinated MDA-7 protein expression in CDDP-sensitive tumor cells but not in CDDP-resistant tumor cells. FIG. 11A, CDDP-resistant (2008/C*13 R) and sensitive (2008) ovarian tumor cells were plated in six-well plates and were treated with PBS, MG132, Ad-mda7, or Ad-mda7 plus MG132. At 48 h after treatment cells were harvested, lysates and supernatants prepared and subjected to MDA-7 and total ubiquitinated protein detection by western blotting and proteasome activity assay using commercially available kit. […] However, the MDA-7 protein was increased in 2008 cells when treated with MG132 plus Ad-mda7. […] FIG. 11B, CDDP-resistant (2008/C*13 R) and sensitive (2008) ovarian tumor cells were plated in six-well plates and were treated with PBS, MG132, Ad-p53, or Ad-p53 plus MG132. At 48 h after treatment cells were harvested, lysates and supernatants prepared and subjected to p53 protein detection by western blotting and proteasome activity using commercially available kit. […] However, the p53 protein was increased in 2008 cells when treated with MG132 plus Ad-p53.
FIG. 20. SiRNA-mediated inhibition of Beta-5 subunit expression of the 20S proteasome in CDDP-sensitive tumor cells abrogates proteasome activity. CDDP-sensitive (2008) ovarian tumor cells were plated in six-well plates. […]

[2] = system: p53, pJNK, p38MAPK, p44/42MAPK in 2008 cells; assay: Western blotting of endogenous ubiquitinated proteins; conditions: 24 h
Experimental: FIG. 16. Expression of endogenous ubiquitinated proteins is increased in MG132-treated CDDP-sensitive tumor cells but not in CDDP-resistant tumor cells. CDDP-resistant (2008/C*13 R) and sensitive (2008) ovarian tumor cells were plated in six-well plates. At 24 h after plating cells were treated with PBS or MG132. At 24 h after treatment cells were harvested, lysates prepared and subjected to western blotting. Primary antibodies used were anti-human p53, anti-human pJNK, antihuman-p38MAPK and anti-human p44/42MAPK antibody. […] Beta-actin was used as internal loading control.
FIG. 19. SiRNA-mediated inhibition of Beta-5 subunit expression of the 20S proteasome in CDDP-sensitive tumor cells results in increased endogenous protein expression. CDDP-sensitive (2008) ovarian tumor cells were plated in six-well plates. At 24 h after plating cells were treated with PBS, control SiRNA, or beta-5 specific SiRNAs (100 nM). At 48 h after treatment cells were harvested, lysates prepared and subjected to western blotting. Primary antibodies used were anti-human beta-5 antibody, anti-human p53 antibody and anti-human pJNK antibody. […] Beta-actin was used as internal loading control.
Expression of Endogenous Ubiquitinated Proteins is Increased in MG132-Treated CDDP-Sensitive Tumor Cells but not in CDDP-Resistant Tumor Cells. […]

[3] = system: total ubiquitinated proteins in 2008 cells; assay: Western blotting of total ubiquitinated proteins; conditions: 24 h
Experimental: (§1) FIG. 9. CDDP-resistant tumor cells have more endogenous ubiquitinated proteins. CDDP-resistant (2008/C*13 R) and sensitive (2008) ovarian tumor cells were plated in six-well plates and were untreated or treated with MG132. Cells were harvested 24 h after treatment, total cell lysate prepared and subjected to western blotting. Membrane was probed with human anti-ubiquitinated antibody.
as §1, with “CDDP-Resistant Tumor Cells Have More Endogenous Ubiquitinated Proteins.” for “FIG. 9. CDDP-resistant tumor cells have more endogenous ubiquitinated proteins.”, “antibody. […] (FIG. 9)” for “antibody.”

With `CC(C)C[C@@H](C=O)NC(=O)[C@H](CC(C)C)NC(=O)[C@H](CC(C)C)NC(=O)OCc1ccccc1` [MG132] (Cbz-Leu-Leu-Leu-aldehyde) the “inhibition of proteasome activity” value ([1]; FIG. 11A (Ad-mda7 experiment)) was 60-65%, the “inhibition of proteasome activity” value ([1]; FIG. 11B (Ad-p53 experiment)) was 60-65% and the “expression of p53, pJNK, p38MAPK, p44/42MAPK” value [2] was “increased expression”. The “total ubiquitinated protein levels” value [3] was “greatly increased”.
